Data from the supplement of paper PMC10307832.

Assays:
Assay in all cases: relative viability (nuclei count vs DMSO), 5 days (fraction); higher = more cells survive
[1] = compound: NC(=O)[C@@H](CCC(F)(F)F)N(Cc1ccc(-c2ncon2)cc1F)S(=O)(=O)c1ccc(Cl)cc1 [Avagacestat] + Cc1nc(Nc2ncc(C(=O)Nc3c(C)cccc3Cl)s2)cc(N2CCN(CCO)CC2)n1 [Dasatinib] (partner 0.075 µM)
How it was run: (§1)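 Medians of duplicate plates are given as relative viability. That measure is the nuclei count in treated wells divided by the count in vehicle wells. Counts were taken on 4× images of lung cancer cell lines in 1536-well plates, 5 days after pin-tool dosing the day after seeding with one drug alone or a fixed anchor-drug dose plus five library-drug doses (not always all listed) in √10 steps.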

[2] = compound: NC(=O)[C@@H](CCC(F)(F)F)N(Cc1ccc(-c2ncon2)cc1F)S(=O)(=O)c1ccc(Cl)cc1 [Avagacestat] + CS(=O)(=O)N1CCN(Cc2cc3nc(-c4cccc5[nH]ncc45)nc(N4CCOCC4)c3s2)CC1 [Pictilisib] (partner 1 µM)
How it was run: as §1

[3] = compound: NC(=O)[C@@H](CCC(F)(F)F)N(Cc1ccc(-c2ncon2)cc1F)S(=O)(=O)c1ccc(Cl)cc1 [Avagacestat] + C[C@@H](Oc1cc(-c2cnn(C3CCNCC3)c2)cnc1N)c1c(Cl)ccc(F)c1Cl [Crizotinib] (partner 1 µM)
How it was run: as §1

[4] = compound: NC(=O)[C@@H](CCC(F)(F)F)N(Cc1ccc(-c2ncon2)cc1F)S(=O)(=O)c1ccc(Cl)cc1 [Avagacestat] + O=C(CCCCCCC(=O)Nc1ccccc1)NO [Vorinostat] (partner 1 µM)
How it was run: as §1

Cell Line	relative viability ([1]; first compound 0.08 µM)	relative viability ([1]; first compound 0.253 µM)	relative viability ([1]; first compound 0.8 µM)	relative viability ([1]; first compound 2.53 µM)	relative viability ([1]; first compound 8 µM)	relative viability ([2]; first compound 0.08 µM)	relative viability ([2]; first compound 0.253 µM)	relative viability ([2]; first compound 0.8 µM)	relative viability ([2]; first compound 2.53 µM)	relative viability ([2]; first compound 8 µM)	relative viability ([3]; first compound 0.08 µM)	relative viability ([3]; first compound 0.253 µM)	relative viability ([3]; first compound 0.8 µM)	relative viability ([3]; first compound 2.53 µM)	relative viability ([3]; first compound 8 µM)	relative viability ([4]; first compound 0.08 µM)	relative viability ([4]; first compound 0.253 µM)	relative viability ([4]; first compound 0.8 µM)	relative viability ([4]; first compound 2.53 µM)	relative viability ([4]; first compound 8 µM)
201T	0.668	0.599	0.565	0.586	0.608	0.737	0.7	0.664	0.691	0.661	1.06	0.991	1.03	1.04	1.01	1.01	1.03	0.925	0.857	0.86
A549						0.795	0.632	0.458	0.462	0.403	1.27	1.26	0.771	0.808	0.623					
A-427	0.785	0.859	0.755	0.935	0.649	0.72	0.832	0.745	0.763	0.817	0.986	1.19	0.842	0.75	0.837	0.958	0.945	1.03	0.946	0.952
ABC-1	0.648	0.644	0.644	0.725	0.59	1	0.753	0.861	0.679	0.711	1.05	1.59	1.53	1.09	1.09	1.22	1.14	1.71	1.15	1.02
BEN	0.382	0.325	0.389	0.37	0.326	0.679	0.621	0.58	0.529	0.534	0.835	1.12	0.835	0.607	0.809	0.589	0.653	0.579	0.526	0.588
CAL-12T	0.376	0.414	0.418	0.386	0.253	0.734	0.47	0.719	0.624	0.48	0.607	0.52	0.717	0.627	0.679	0.918	1.1	0.796	0.729	0.798
COR-L23	0.507	0.471	0.781	0.457	0.359	1.07	0.878	0.774	0.653	0.397	0.678	0.642	0.552	0.643	0.441	0.474	0.457	0.484	0.366	0.332
COR-L 105	0.281	0.307	0.345	0.247	0.279	0.38	0.447	0.326	0.319	0.419	0.856	0.815	0.919	0.547	0.72	1.08	0.891	0.87	0.792	0.884
Calu-6						1.3	1.03	1.18	0.913	1.02	0.998	0.968	0.885	0.824	0.691					
ChaGo-K-1	0.616	0.641	0.628	0.551	0.608	0.701	0.675	0.924	1.09	0.801	1.06	1.31	1.11	1.05	0.974	0.783	0.874	0.79	0.755	0.692
EKVX	0.621	0.491	0.512	0.473	0.382	0.443	0.528	0.523	0.393	0.435	1.02	1.35	1.06	0.899	0.857	0.826	0.783	0.904	0.75	0.68
EMC-BAC-2	0.342	0.298	0.301	0.292	0.308	0.567	0.554	0.564	0.489	0.517	0.797	0.844	0.766	0.704	0.719	0.662	0.581	0.803	0.535	0.51
EPLC-272H	0.328	0.339	0.289	0.348	0.266	0.325	0.273	0.346	0.371	0.241	1.06	0.988	1.03	0.969	0.799	0.413	0.318	0.539	0.367	0.321
H3255	0.362	0.347	0.57	0.379	0.313	0.488	0.544	0.494	0.481	0.474	1.05	1.07	1.01	0.872	0.865	0.825	0.89	1.03	0.861	0.7
HARA	0.234	0.254	0.228	0.262	0.239	0.368	0.517	0.417	0.342	0.373	1.23	1.27	1.06	1.03	0.76	0.572	0.551	0.524	0.716	0.549
HCC-15	0.685	0.642	0.652	0.608	0.539	0.837	0.801	0.802	0.808	0.611	0.871	0.911	0.695	0.715	0.779	0.976	1.03	0.979	0.796	0.818
HCC-44						0.548	0.782	0.588	0.484	0.569	0.92	0.905	0.846	0.838	0.699	1.09	1.14	1.19	1.07	1.21
